Results: patent US12582677B2, “Methods for producing retinal tissue and retina-related cell” (SUMITOMO CHEMICAL COMPANY, LIMITED, priority 2011, dated 2026)

How the values were obtained:
[1] = tested on: RAX::GFP knock-in human ES cells; assay: Production of optic-cup-like structure from human ES cell aggregates; assay type: cell-based; conditions: 3 μM CHIR99021 and 100 nM SAG together in serum-containing medium from day 15
Protocol: RAX::GFP knock-in human ES cells (derived from KhES-1) were cultured according to the methods described in “Ueno, M. et al. PNAS 2006”, “Watanabe, K. et al. Nat Biotech 2007” and used for the experiment. As the medium, DMEM/F12 medium (Invitrogen) added with 20% KSR (Knockout Serum Replacement; Invitrogen), 0.1 mM 2-mercaptoethanol, 1 mM pyruvic acid, and 5 to 10 ng/ml bFGF was used. For the formation of aggregate by floating culture, the ES cells were dispersed into single cells by using 0.25% trypsin-EDTA (Invitrogen), suspended in a serum-free medium (100 μl) to 9×10^3 cells per well of a non-cell adhesive 96-well culture plate (SUMILON spheroid plate, SUMITOMO BAKELITE CO., LTD.) to allow for rapid formation of aggregates, and floating cultured at 37° C., 5% CO2. As the serum-free medium in this case, a serum-free medium obtained by adding 20% KSR, 0.1 mM 2-mercaptoethanol, 1 mM pyruvic acid, 20 μM Y27632 and a substance inhibiting the Wnt signal pathway (3 μM IWR1e) to G-MEM medium was used. During the floating culture, Matrigel in an amount of 1/100 per volume was added from day 2 from the start of the floating culture. The floating aggregate was transferred to a serum-free medium without a substance inhibiting the Wnt signal pathway on day 12 from the start of the floating culture, fetal calf serum in an amount of 1/10 per volume was added and the aggregate was cultured. […]

Human ES cells (KhES-1) = assay: Production of retinal pigment epithelium from human ES cell aggregates; assay type: cell-based; conditions: Matrigel and serum steps
Protocol: Human ES cells (KhES-1) were cultured according to the methods described in “Ueno, M. et al. PNAS 2006”, “Watanabe, K. et al. Nat Biotech 2007” and used for the experiment. As the medium, DMEM/F12 medium (Invitrogen) added with 20% KSR (Knockout Serum Replacement; Invitrogen), 0.1 mM 2-mercaptoethanol, 1 mM pyruvic acid, and 5 to 10 ng/ml bFGF was used. For the formation of retinal tissue by floating culture, the ES cells were dispersed into single cells by using 0.25% trypsin-EDTA (Invitrogen), suspended in a serum-free medium (100 μl) to 9×10^3 cells per well of a non-cell adhesive 96-well culture plate (SUMILON spheroid plate, SUMITOMO BAKELITE CO., LTD.) to allow for rapid formation of aggregates, and floating cultured at 37° C., 5% CO2. As the serum-free medium in this case, a serum-free medium obtained by adding 20% KSR, 0.1 mM 2-mercaptoethanol, 1 mM pyruvic acid, 20 μM Y27632 and a substance inhibiting the Wnt signal pathway (3 μM IWR1e) to G-MEM medium was used. Matrigel was added in an amount of 1/100 per volume from day 2 of the floating culture and floating culture was performed. The aggregate was transferred to a serum-free medium without containing a substance inhibiting the Wnt signal pathway on day 12 from the start of the floating culture, fetal calf serum in an amount of 1/10 per volume was added and cultured. […]

| Compound | optic-cup-like structure formation on aggregate [1] | retinal pigment epithelium on aggregates (bright-field) (Human ES cells (KhES-1); 3 μM CHIR99021 from day 15, after IWR1e) | retinal pigment epithelia on aggregates (bright-field) (Human ES cells (KhES-1); Activin A 100 ng/ml with 3 μM CHIR99021 from day 15, after IWR1e) |
| --- | --- | --- | --- |
| Cc1c[nH]c(-c2cnc(NCCNc3ccc(C#N)cn3)nc2-c2ccc(Cl)cc2Cl)n1 [CHIR99021] | a clear optic-cup-like structure was formed | emerged on almost all surfaces of the aggregates | – |
| Activin A: substance acting on the Activin signal pathway; Recombinant Human/Mouse/Rat Activin A (R&D systems #338-AC) | – | – | almost all the surfaces of the aggregates were covered with retinal pigment epithelia |
